Laboratory results from patent US11109593B2, “Isoxazolin-5-one derivative and herbicide containing same as active ingredient” (HOKKO CHEMICAL INDUSTRY CO., LTD., priority 2017, dated 2021).

What was measured:
Type in all cases: in vivo
[1] = test system: Echinochloa crus-galli; assay: Test Example 1: herbicidal effect test by treatment of rice paddy soil (immediately after seeding); details: 120 g/10a active ingredient, dry weight vs untreated area, 14 days after treatment
Method in brief: (§1)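 Values are herbicidal rates (%) derived from average plant dry weight in treated versus untreated pots 14 days after treatment, run in duplicate. Treatment was a water-diluted emulsion dropped into flooded paddy soil right after sowing, at 120 g active ingredient per 10 ares.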

[2] = test system: Scirpus juncoides; assay: as above; details: 120 g/10a active ingredient, dry weight vs untreated area, 14 days after treatment
Method in brief: as §1

[3] = test system: broad leaf weeds (Lindernia pyxidaria and Monochoria vaginalis); assay: as above; details: 120 g/10a active ingredient, dry weight vs untreated area, 14 days after treatment
Method in brief: as §1

[4] = test system: Echinochloa crus-galli; assay: Test Example 2: herbicidal effect test by treatment during growing period in paddy rice cultivation (seven days after seeding); details: 120 g/10a active ingredient, assessed 14 days after treatment, dry weight vs untreated area
Method in brief: (§2)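 Emulsion formulations, diluted in water, applied dropwise to flooded pots (about 3 cm water) 7 days post-seeding at 120 g a.i./10 ares. Weeds sown 30 seeds each, 0–1 cm deep in puddled paddy soil; greenhouse. Readout: % reduction in plant dry weight vs untreated, day 14, duplicates.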

[5] = test system: Scirpus juncoides; assay: as above; details: 120 g/10a active ingredient, assessed 14 days after treatment, dry weight vs untreated area
Method in brief: as §2

[6] = test system: broad leaf weeds (Lindernia pyxidaria and Monochoria vaginalis); assay: as above; details: 120 g/10a active ingredient, assessed 14 days after treatment, dry weight vs untreated area
Method in brief: as §2

[7] = test system: Amaranthus viridis; assay: Test Example 3: herbicidal effect test by treatment of dry field farming soil (one day after seeding); details: 120 g/10a active ingredient, evaluated 14 days after treatment
Method in brief: (§3)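 Herbicidal rate (%) = {1 − treated/untreated mean plant dry weight} × 100, scored 14 days after spraying, duplicate pots per concentration. Emulsified compound was water-diluted and applied to soil surface one day post-seeding at 120 g a.i. per 10 ares.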

[8] = test system: Chenopodium album; assay: as above; details: 120 g/10a active ingredient, evaluated 14 days after treatment
Method in brief: as §3

[9] = test system: Echinochloa crus-galli; assay: as above; details: 120 g/10a active ingredient, evaluated 14 days after treatment
Method in brief: as §3

[10] = test system: southern crabgrass; assay: as above; details: 120 g/10a active ingredient, evaluated 14 days after treatment
Method in brief: as §3

[11] = test system: Amaranthus viridis; assay: Test Example 4: herbicidal effect test by treatment of leave and stem in dry field farming (seven days after seeding); details: 120 g/10a active ingredient; emulsion sprayed seven days after seeding; evaluated 14 days after treatment
Method in brief: (§4)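 Weeds were seeded at 20 seeds per species into the top 1 cm of alluvial upland soil in pots, then sprayed 7 days after seeding with water-diluted emulsifiable concentrate at 100 L/10 a, giving 120 g active ingredient/10 a. Duplicate pots; herbicidal rate (%) was 14 days post-treatment, from dry weight versus untreated.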

[12] = test system: Chenopodium album; assay: as above; details: 120 g/10a active ingredient; emulsion sprayed seven days after seeding; evaluated 14 days after treatment
Method in brief: as §4

[13] = test system: Echinochloa crus-galli; assay: as above; details: 120 g/10a active ingredient; emulsion sprayed seven days after seeding; evaluated 14 days after treatment
Method in brief: as §4

[14] = test system: southern crabgrass; assay: as above; details: 120 g/10a active ingredient; emulsion sprayed seven days after seeding; evaluated 14 days after treatment
Method in brief: as §4

| Structure (SMILES) | Herbicidal rate (%) Echinochloa crus-galli [1] [%] | Herbicidal rate (%) Scirpus juncoides [2] [%] | Herbicidal rate (%) Lindernia pyxidaria [3] [%] | Herbicidal rate (%) Monochoria vaginalis [3] [%] | Herbicidal rate (%) Echinochloa crus-galli [4] [%] | Herbicidal rate (%) Scirpus juncoides [5] [%] | Herbicidal rate (%) Lindernia pyxidaria [6] [%] | Herbicidal rate (%) Monochoria vaginalis [6] [%] | herbicidal rate, Amaranthus viridis [7] [%] | herbicidal rate, Chenopodium album [8] [%] | herbicidal rate, Echinochloa crus-galli [9] [%] | herbicidal rate, southern crabgrass [10] [%] | herbicidal effect (herbicidal rate), Amaranthus viridis [11] [%] | herbicidal effect (herbicidal rate), Chenopodium album [12] [%] | herbicidal effect (herbicidal rate), Echinochloa crus-galli [13] [%] | herbicidal effect (herbicidal rate), southern crabgrass [14] [%] |
| --- | --- | --- | --- | --- | --- | --- | --- | --- | --- | --- | --- | --- | --- | --- | --- | --- |
| CCC(C)Cn1oc(=O)c(Cc2ccccc2NS(=O)(=O)C(F)(F)F)c1C (stereo not drawn) [Compound 1-112] | 100 | 90 | 90 | 90 | 90 | 90 | 80 | 80 | 60 | 80 | 90 | 90 | 40 | 0 | 90 | 50 |
| COCC(C)n1oc(=O)c(Cc2ccccc2N(C(=O)OCc2ccccc2)S(=O)(=O)C(F)(F)F)c1C (stereo not drawn) [Compound 1-790] | 90 | 90 | 90 | 90 | 90 | 90 | 90 | 90 | 90 | 90 | 90 | 90 | 40 | 40 | 90 | 90 |
| CCC(CC)n1oc(=O)c(Cc2ccccc2N(C(=O)C(C)C)S(=O)(=O)C(F)(F)F)c1C [Compound 1-331] | 90 | 90 | 90 | 90 | 90 | 90 | 90 | 90 | 90 | 90 | 90 | 90 | 40 | 40 | 90 | 90 |
| CCC(CC)n1oc(=O)c(Cc2ccccc2NS(=O)(=O)C(F)(F)F)c1C [Compound 1-103] | 100 | 90 | 80 | 100 | 90 | 80 | 60 | 80 | 100 | 100 | 100 | 100 | 90 | 40 | 90 | 90 |
| Cc1c(Cc2ccccc2N(S(C)(=O)=O)S(=O)(=O)C(F)(F)F)c(=O)on1CC(C)C [Compound 1-892] | 100 | 90 | 90 | 90 | 90 | 90 | 80 | 80 | 90 | 80 | 90 | 90 | 40 | 40 | 50 | 40 |
| Cc1c(Cc2ccccc2N(C(=O)OC(C)C)S(=O)(=O)C(F)(F)F)c(=O)on1C(C)c1ccccc1 (stereo not drawn) [Compound 1-653] | 90 | 90 | 90 | 90 | 90 | 90 | 90 | 90 | 90 | 90 | 90 | 90 | 40 | 40 | 90 | 90 |
| COCCn1oc(=O)c(Cc2ccccc2NS(=O)(=O)C(F)(F)F)c1C [Compound 1-148] | 90 | 100 | 100 | 90 | 90 | 90 | 60 | 80 | 80 | 80 | 100 | 100 | 40 | 40 | 90 | 80 |
| Cc1c(Cc2cc(F)ccc2NS(=O)(=O)C(F)(F)F)c(=O)on1CC(C)C [Compound 1-28] | 100 | 90 | 90 | 100 | 100 | 90 | 80 | 100 | 100 | 100 | 90 | 80 | 80 | 40 | 90 | 50 |
| Cc1c(Cc2ccccc2N(S(=O)(=O)C(F)(F)F)S(=O)(=O)C(F)(F)F)c(=O)on1C1CCCCC1 [Compound 1-990] | 90 | 80 | 90 | 80 | 100 | 80 | 100 | 80 | 0 | 50 | 50 | 50 | 50 | 40 | 60 | 0 |
